# Experiments:
# Assay type in all cases: physicochemical
# [1] = Surface tension (lowering of the air/water surface tension), Table 2; conditions: 10 mEq/L, deionized water, 22° C.
# Description: The surface activity - lowering of the air/water surface tension - of the
# surfactants was also measured. Surface tensions were measured at a
# surfactant concentration of 10 milliequivalents/L in deionized water at
# 22° C. or a Fisher Autotensiomat (de Nouy ring) apparatus. At this
# concentration, all the surfactants should be above their critical micell
# ^f Of a 10 mEq/L solution of surfactant at 22° C.
# [2] = 60° C. solubility in deionized (distilled) water and in seawater; design: key to 60° C. Solubility (@ mEq/L), H2O / 60° C. Solubility (@ mEq/L), Seawater: S: completely soluble; P: partially soluble; I: insoluble; T: turbid solution
# Description: As mentioned above, surfactants for EOR must be compatible with divalent ion containing brines such as seawater. Solubility tests were carried out in both deionized water and in seawater. The surfactants of this invention (Examples 1-5) were all soluble in seawater. […] A commercial sulfonate (SDBS, Comparative Example 3) was insoluble in seawater. All surfactants were soluble in distilled water.
# ^ d S = completely soluble P = partially soluble I = insoluble T =
# [3] = Calcium-ion tolerance (calcium precipitation) test; conditions: for Calcium Precipitation (ppm CA^2+): 10 mEq/L surfactant titrated with 5 M CaCl2 until transmittance (600 nm) 80% of initial; for Calcium Precipitation (ppm CA^2+), lower concentration / Calcium Precipitation (ppm CA^2+), higher concentration: 10 mEq/L; for Calcium Precipitation (ppm CA^2+), lower concentration: one component apparently precipitates at the lower calcium ion concentration; for Calcium Precipitation (ppm CA^2+), higher concentration: remainder precipitates at the higher calcium concentration
# Description: Calcium-ion tolerance tests were conducted to quantify the relative solubility of the surfactants in the presence of divalent ions (see Table 2). All of the surfactants of this invention tolerated calcium ion concentrations from 28 to 10,000 times higher than the comparative examples.
# ^e A 10 mEq/L solution of Surfactant was titrated with 5 M CaCl2
# solution until the transmittance of the solution (600 nm) was reduced to
# 80% of the initial value.
# ^g One component apparently precipitates out at the lower calcium ion
# concentration and the reminder at the higher calcium concentration.
# [4] = Foam formation/stability, simple version of the Ross-Miles foam test; conditions: 10 meq/L
# Description: Foam tests were conducted using a simple version of the Ross-Miles foam test. The initial (0 min) foam volume for SDBS was assigned a value of 100. All other foam volumes were related to this value.
# [5] = Thermal stability at 90° C.; surfactant activity by two-phase titration; conditions: for Surfactant Activity (%): 90° C.; for appearance: aged at 90° C.
# Description: Surfactant solutions were prepared in distilled water, 1.2M sodium hydroxide, and 1.2M hydrochloric acid. These solutions were aged at 90° C. Samples were withdrawn at regular interval and surfactant activity was determined by two-phase titration.
# [6] = CMC (critical micelle concentration) from surface tension vs. surfactant concentration curves; conditions: calcium ion concentration 0
# Description: (§1) Surface tensions (in dynes/cm) were measured using the Du Nouy ring method. The reported surface tensions are for 10 meq/L surfactant solutions: which is above the CMC (critical micelle concentration). The CMC's (in meq/L) were determined by examination of surface tension vs. surfactant concentration curves.
# [7] = Surface tension by Du Nouy ring method at varied calcium ion concentration, Table 3
# Description: as §1
# [8] = Divalent ion tolerance as stated in the description; conditions: divalent ion concentration tolerated / stable to
compound,measurement,setting,value
CCCCCCCCCCCCc1ccc(O)c(S(=O)(=O)O)c1 [Comparative Example 1],Surface Tension,[1],23.4 Dyne/cm
same,"60° C. Solubility (@ mEq/L), H2O",[2]; 24 mEq/L,S
same,solubility in seawater (in words),[2],either insoluble or partially soluble
same,"60° C. Solubility (@ mEq/L), Seawater",[2]; 25 mEq/L,I
same,Calcium Precipitation (ppm CA^2+),[3],< 80 ppm
CCCCCCCCCc1ccc(O)c(S(=O)(=O)O)c1 [Comparative Example 2],Surface Tension,[1],24.9 Dyne/cm
same,"60° C. Solubility (@ mEq/L), H2O",[2]; 30 mEq/L,"S,T"
same,solubility in seawater (in words),[2],either insoluble or partially soluble
same,"60° C. Solubility (@ mEq/L), Seawater",[2]; 28 mEq/L,P
same,Calcium Precipitation (ppm CA^2+),[3],160 ppm
CCCCCCC(CO)CCC(C)c1ccc(S(=O)(=O)O)cc1 (stereo not shown) [Example 1],Surface Tension,[1],25.1 Dyne/cm
same,"60° C. Solubility (@ mEq/L), H2O",[2]; 18 mEq/L,S
same,Calcium Precipitation (ppm CA^2+),[3],2800 ppm
CCCCCC(CO)CCC(C)c1ccc(S(=O)(=O)O)cc1 (stereo not shown) [Example 2],Surface Tension,[1],25.6 Dyne/cm
same,"60° C. Solubility (@ mEq/L), H2O",[2]; 35 mEq/L,S
same,"60° C. Solubility (@ mEq/L), Seawater",[2]; 34 mEq/L,S
same,"Calcium Precipitation (ppm CA^2+), lower concentration",[3],355 ppm
same,"Calcium Precipitation (ppm CA^2+), higher concentration",[3],20000 ppm
CCCCCCCCC(CO)CCC(C)c1ccc(S(=O)(=O)O)cc1 (stereo not shown) [Example 3],Surface Tension,[1],26.4 Dyne/cm
same,"60° C. Solubility (@ mEq/L), H2O",[2]; 18 mEq/L,S
same,"60° C. Solubility (@ mEq/L), Seawater",[2]; 27 mEq/L,S
same,Calcium Precipitation (ppm CA^2+),[3],40K
CCCCCCC(CO)Cc1ccc(S(=O)(=O)O)cc1 (stereo not shown) [Example 4],Surface Tension,[1],25.2 Dyne/cm
same,"60° C. Solubility (@ mEq/L), H2O",[2]; 15 mEq/L,S
same,"60° C. Solubility (@ mEq/L), Seawater",[2]; 26 mEq/L,S
same,"Calcium Precipitation (ppm CA^2+), lower concentration",[3],350 ppm
same,"Calcium Precipitation (ppm CA^2+), higher concentration",[3],57000 ppm
CCCCCCCCC(CO)Cc1ccc(S(=O)(=O)O)cc1 (stereo not shown) [Example 5],Surface Tension,[1],29.3 Dyne/cm
same,"60° C. Solubility (@ mEq/L), H2O",[2]; 15 mEq/L,S
same,"60° C. Solubility (@ mEq/L), Seawater",[2]; 27 mEq/L,S
same,Calcium Precipitation (ppm CA^2+),[3],100K
sodium dodecylbenzenesulfonate [SDBS],Foam Volume (relative to initial SDBS = 100),[4]; 0 min,100
same,Foam Volume (relative to initial SDBS = 100),[4]; +5 min,94
same,Foam Volume (relative to initial SDBS = 100),[4]; +15 min,83
same,Foam Volume (relative to initial SDBS = 100),[4]; +30 min,77
same,Foam Volume (relative to initial SDBS = 100),[4]; +45 min,71
same,Surfactant Activity (%),"[5]; 1.2 M HCl, 0 hr",100%
same,Surfactant Activity (%),"[5]; 1.2 M HCl, 305 hr",92%
same,Surfactant Activity (%),"[5]; 1.2 M HCl, 500 hr",59%
same,Surfactant Activity (%),"[5]; 1.2 M HCl, 720 hr",41%
same,appearance,[5]; 1.2 M HCl,ppt
same,Surfactant Activity (%),"[5]; 1.2 M NaOH, 0 hr",1%
same,appearance,[5]; 1.2 M NaOH,ppt
same,Surfactant Activity (%),"[5]; distilled water, 0 hr",100%
same,Surfactant Activity (%),"[5]; distilled water, 330 hr",93%
same,Surfactant Activity (%),"[5]; distilled water, 525 hr",93%
same,Surfactant Activity (%),"[5]; distilled water, 740 hr",93%
same,appearance,[5]; distilled water,clear
same,Surface Tension,[1],28.6 Dyne/cm
same,CMC,[6],1 meq/L
same,Surface Tension,"[7]; 10 meq/L surfactant, calcium ion concentration 0",29 dynes/cm
same,Surface Tension (observation in words),[7]; calcium ion concentration 1000 PPM,surfactant precipitate
same,Surface Tension (observation in words),"[7]; calcium ion concentration 10,000 PPM",surfactant precipitate
same,"60° C. Solubility (@ mEq/L), H2O",[2]; 27 mEq/L,S
same,solubility in seawater (in words),[2],insoluble
same,"60° C. Solubility (@ mEq/L), Seawater",[2]; 27 mEq/L,I
same,divalent ion tolerance,[8],100 ppm
same,Calcium Precipitation (ppm CA^2+),[3],90 ppm

# — patent US4894173A, “Divalent ion tolerant aromatic sulfonates” (The Standard Oil Company, priority 1988, dated 1990)
